Measurements from patent US20230013669A1, “Antibacterial Treatment Using a Cannabinoid and an Active Agent” (priority 2019, published 2023).
Values joined by “and” are separate entries in the source; they are usually repeats but may differ in a detail not shown here. Equal entries are not always repeated.

Tested on: Acinetobacter baumannii ATCC 19606 (GN_034)
Assay: Synergy of cannabidiol with cell-wall disrupting agent (CBD MIC in combination, FICI)
Format: cell-based
Method: The compounds were stored short term at 4° C.
Analysis was performed using Microsoft Excel.

[1] = CBD with Colistin, Acinetobacter baumannii ATCC 19606
[2] = CBD with MCC_6442, Acinetobacter baumannii ATCC 19606

C=C(C)C1CCC(C)=CC1c1c(O)cc(CCCCC)cc1O (centres unmarked) [Cannabidiol, 2-[3-methyl-6-(1-methylethenyl)-2-cyclohexen-1-yl]-5-pentyl-1,3-benzenediol]
FICI (CBD with Aztreonam at 8 μg/mL, CBD MIC taken as 256 μg/mL): 0.375 | FICI (CBD with Aztreonam at 16 μg/mL, CBD MIC taken as 256 μg/mL): 0.5 | FICI range (CBD with Aztreonam, all tested concentrations (Table 74)): 0.25-1.06 | FICI (CBD with Cefepime at 0.25 μg/mL, CBD MIC taken as 256 μg/mL): 1.016 | FICI (CBD with Cefepime at 0.5 μg/mL, CBD MIC taken as 256 μg/mL): 1.031 | FICI (CBD with Cefepime at 1 μg/mL, CBD MIC taken as 256 μg/mL): 1.0625 | FICI (CBD with Cefepime at 2 μg/mL, CBD MIC taken as 256 μg/mL): 1.125 | FICI (CBD with Cefepime at 4 μg/mL, CBD MIC taken as 256 μg/mL): 0.375 | FICI (CBD with Cefepime at 8 μg/mL, CBD MIC taken as 256 μg/mL): 0.5625 | FICI range (CBD with Cefepime, Synergy table (Table 81)): 0.38 | FICI range (CBD with Cefepime, all tested concentrations (Table 79)): 0.38-1.13 | FICI (CBD with Cefotetan at 4 μg/mL, CBD MIC taken as 256 μg/mL): 1.016 | FICI (CBD with Cefotetan at 8 μg/mL, CBD MIC taken as 256 μg/mL): 1.031 | FICI (CBD with Cefotetan at 16 μg/mL, CBD MIC taken as 256 μg/mL): 1.0625 | FICI (CBD with Cefotetan at 32 μg/mL, CBD MIC taken as 256 μg/mL): 1.125 | FICI (CBD with Cefotetan at 64 μg/mL, CBD MIC taken as 256 μg/mL): 1.25 | FICI (CBD with Cefotetan at 128 μg/mL, CBD MIC taken as 256 μg/mL): 1.5 | FICI range (MIC table) (CBD with Cefotetan, Acinetobacter baumannii ATCC 19606): 1.02-1.5 | FICI (CBD with Ceftazidime at 0.5 μg/mL, Acinetobacter baumannii ATCC 19606): 1.125 | FICI (CBD with Ceftazidime at 1 μg/mL, Acinetobacter baumannii ATCC 19606): 1.25 | FICI (CBD with Ceftazidime at 2 μg/mL, Acinetobacter baumannii ATCC 19606): 1.5 | FICI (CBD with Ceftazidime at 4 μg/mL, Acinetobacter baumannii ATCC 19606): 1.125 | FICI (CBD with Ceftazidime at 8 μg/mL, Acinetobacter baumannii ATCC 19606): 2.0625 | FICI (CBD with Ceftazidime at 16 μg/mL, Acinetobacter baumannii ATCC 19606): 4 | FICI range (MIC table) (CBD with Ceftazidime, Acinetobacter baumannii ATCC 19606): 1.13-4 | FICI (CBD with Cefuroxime at 4 μg/mL, Acinetobacter baumannii ATCC 19606): 1.0625 | FICI (CBD with Cefuroxime at 8 μg/mL, Acinetobacter baumannii ATCC 19606): 1.125 | FICI (CBD with Cefuroxime at 16 μg/mL, Acinetobacter baumannii ATCC 19606): 0.375 | FICI (CBD with Cefuroxime at 32 μg/mL, Acinetobacter baumannii ATCC 19606, listed as CBD): 0.5625 and 0.625 | FICI (CBD with Cefuroxime at 64 μg/mL, Acinetobacter baumannii ATCC 19606): 1 | FICI (CBD with Cefuroxime at 128 μg/mL, Acinetobacter baumannii ATCC 19606): 2 | FICI range (Synergy table) (CBD with Cefuroxime, Acinetobacter baumannii ATCC 19606): 0.38 | FICI (CBD with Colistin at 0.031 μg/mL, Acinetobacter baumannii ATCC 19606): 0.04662 | FICI (CBD with Colistin at 0.062 μg/mL, Acinetobacter baumannii ATCC 19606): 0.06981 | FICI (CBD with Colistin at 0.5 μg/mL, Acinetobacter baumannii ATCC 19606, listed as CBD): 0.501 and 0.5039 | FICI (CBD with Colistin at 1 μg/mL, Acinetobacter baumannii ATCC 19606): 1 | FICI range (MIC table) [1]: 0.05-1 | FICI range (Synergy table) [1]: 0.05-0.5 | FICI range (MIC table) [2]: 0.07-1.02 | FICI range (Synergy table) [2]: 0.09-1.13 | FICI (CBD with MCC_6442 at 0.5 μg/mL, Acinetobacter baumannii ATCC 19606): 1.016 | FICI (CBD with MCC_6442 at 1 μg/mL, Acinetobacter baumannii ATCC 19606): 0.09375 | FICI (CBD with MCC_6442 at 2 μg/mL, Acinetobacter baumannii ATCC 19606): 0.06641 | FICI (CBD with MCC_6442 at 4 μg/mL, Acinetobacter baumannii ATCC 19606): 0.127 | FICI range (CBD with Octapeptin C4, Synergy table (Table 85), listed as CBD): 0.28-0.5 and 0.19-0.5 | FICI range (CBD with Octapeptin C4, all tested concentrations (Table 83), listed as CBD): 0.28-1.13 and 0.19-1.06 | FICI (CBD with Octapeptin C4 at 0.25 μg/mL, CBD MIC taken as 256 μg/mL): 1.031 | FICI (CBD with Octapeptin C4 at 0.25 μg/mL, CBD MIC taken as 256 μg/mL, listed as cannabidiol): 1.016 | FICI (CBD with Octapeptin C4 at 0.5 μg/mL, CBD MIC taken as 256 μg/mL): 1.0625 and 1.031 | FICI (CBD with Octapeptin C4 at 1 μg/mL, CBD MIC taken as 256 μg/mL): 1.125 and 1.0625 | FICI (CBD with Octapeptin C4 at 2 μg/mL, CBD MIC taken as 256 μg/mL): 0.2812 and 0.1875 | FICI (CBD with Octapeptin C4 at 4 μg/mL, CBD MIC taken as 256 μg/mL): 0.5078 and 0.2578 | FICI (CBD with Octapeptin C4 at […], CBD MIC taken as 256 μg/mL): 1.016
